The values that follow come from BindingDB's records for doi:10.1002/cbdv.201000242 (East China University of Science and Technology, 2011).

Molecules are shown by their SMILES.

Assay in all cases: Inhibitory Assay
What all share (settings): pH 6.5

The target of experiment [1] is Tyrosine-protein phosphatase non-receptor type 6 (Homo sapiens, UniProt P29350). The protocol: (§1) Enzymatic activity of enzyme was evaluated using pNPP assay. Briefly, a reaction mixture (100 µL) containing 50 mM MOPS (pH 6.5), 2 mM pNPP and recombinant enzymes was monitored at 405 nm for 2 min at 30 °C.
Sequence of Tyrosine-protein phosphatase non-receptor type 6 (P29350 whole entry): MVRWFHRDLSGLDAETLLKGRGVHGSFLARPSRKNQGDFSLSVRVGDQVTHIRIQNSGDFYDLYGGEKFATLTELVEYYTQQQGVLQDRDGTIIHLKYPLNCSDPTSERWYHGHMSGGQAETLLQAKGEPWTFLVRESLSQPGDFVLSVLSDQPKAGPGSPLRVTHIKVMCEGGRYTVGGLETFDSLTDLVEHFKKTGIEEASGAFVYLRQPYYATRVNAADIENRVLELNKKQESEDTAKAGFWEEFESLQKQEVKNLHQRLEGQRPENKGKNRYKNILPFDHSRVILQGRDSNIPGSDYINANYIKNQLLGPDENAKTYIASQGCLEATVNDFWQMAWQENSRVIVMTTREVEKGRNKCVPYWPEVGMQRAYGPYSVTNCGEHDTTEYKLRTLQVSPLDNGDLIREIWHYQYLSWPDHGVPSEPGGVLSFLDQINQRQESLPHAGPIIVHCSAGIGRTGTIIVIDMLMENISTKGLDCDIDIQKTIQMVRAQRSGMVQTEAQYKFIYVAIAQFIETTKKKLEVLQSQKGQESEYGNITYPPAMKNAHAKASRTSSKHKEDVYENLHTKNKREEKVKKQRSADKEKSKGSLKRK
For experiment [2], the target named is T1, Tyrosine-protein phosphatase non-receptor type 11 (Homo sapiens, UniProt Q06124).
T1 sequence (Q06124 whole entry): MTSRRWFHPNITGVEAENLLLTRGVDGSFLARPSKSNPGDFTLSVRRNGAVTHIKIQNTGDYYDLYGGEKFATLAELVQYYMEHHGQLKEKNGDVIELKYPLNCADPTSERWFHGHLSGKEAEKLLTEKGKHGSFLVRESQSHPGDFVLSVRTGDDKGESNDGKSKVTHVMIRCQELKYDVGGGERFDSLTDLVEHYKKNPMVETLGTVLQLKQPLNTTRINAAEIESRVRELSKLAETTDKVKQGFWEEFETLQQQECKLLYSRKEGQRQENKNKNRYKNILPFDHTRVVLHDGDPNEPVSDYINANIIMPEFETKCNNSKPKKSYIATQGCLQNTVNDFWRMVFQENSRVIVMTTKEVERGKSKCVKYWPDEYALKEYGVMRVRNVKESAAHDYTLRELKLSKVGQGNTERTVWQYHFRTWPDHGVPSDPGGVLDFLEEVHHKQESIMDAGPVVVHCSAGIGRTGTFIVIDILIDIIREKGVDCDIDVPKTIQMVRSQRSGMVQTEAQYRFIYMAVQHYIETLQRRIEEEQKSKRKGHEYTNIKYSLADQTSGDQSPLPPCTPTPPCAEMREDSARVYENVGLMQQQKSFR
The procedure: as §1

Experiment [3] addresses T2, Tyrosine-protein phosphatase non-receptor type 2 (Homo sapiens, UniProt P17706).
T2 sequence (P17706 whole entry): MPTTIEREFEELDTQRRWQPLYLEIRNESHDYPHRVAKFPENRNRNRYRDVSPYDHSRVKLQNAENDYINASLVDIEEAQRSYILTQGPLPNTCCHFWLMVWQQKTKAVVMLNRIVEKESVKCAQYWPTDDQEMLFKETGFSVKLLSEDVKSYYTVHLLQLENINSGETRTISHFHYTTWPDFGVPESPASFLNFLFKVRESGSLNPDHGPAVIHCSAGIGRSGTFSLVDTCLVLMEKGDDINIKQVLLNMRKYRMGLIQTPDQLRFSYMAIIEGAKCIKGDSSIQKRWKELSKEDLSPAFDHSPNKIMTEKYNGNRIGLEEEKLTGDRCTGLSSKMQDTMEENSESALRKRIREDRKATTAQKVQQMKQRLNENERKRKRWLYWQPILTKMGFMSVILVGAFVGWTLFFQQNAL
The protocol: as §1

In experiment [4] the target is Receptor-type tyrosine-protein phosphatase F (Homo sapiens, UniProt P10586). The procedure:
as §1

Experiment [5] deals with T3, Tyrosine-protein phosphatase non-receptor type 1 (Homo sapiens, UniProt P18031).
T3 sequence (P18031 whole entry): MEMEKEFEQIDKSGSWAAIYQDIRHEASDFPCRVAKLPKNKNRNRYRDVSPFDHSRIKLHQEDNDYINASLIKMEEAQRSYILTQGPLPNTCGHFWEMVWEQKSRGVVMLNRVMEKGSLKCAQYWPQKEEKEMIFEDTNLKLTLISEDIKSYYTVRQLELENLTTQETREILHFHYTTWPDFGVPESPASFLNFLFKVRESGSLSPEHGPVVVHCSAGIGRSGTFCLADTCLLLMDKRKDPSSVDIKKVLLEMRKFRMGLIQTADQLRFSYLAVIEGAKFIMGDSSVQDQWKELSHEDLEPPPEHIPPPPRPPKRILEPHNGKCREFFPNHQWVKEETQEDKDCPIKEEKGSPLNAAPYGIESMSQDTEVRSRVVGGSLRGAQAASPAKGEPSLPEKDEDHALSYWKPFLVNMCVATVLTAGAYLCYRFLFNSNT
The procedure: as §1

Sequence of Receptor-type tyrosine-protein phosphatase F (P10586 whole entry): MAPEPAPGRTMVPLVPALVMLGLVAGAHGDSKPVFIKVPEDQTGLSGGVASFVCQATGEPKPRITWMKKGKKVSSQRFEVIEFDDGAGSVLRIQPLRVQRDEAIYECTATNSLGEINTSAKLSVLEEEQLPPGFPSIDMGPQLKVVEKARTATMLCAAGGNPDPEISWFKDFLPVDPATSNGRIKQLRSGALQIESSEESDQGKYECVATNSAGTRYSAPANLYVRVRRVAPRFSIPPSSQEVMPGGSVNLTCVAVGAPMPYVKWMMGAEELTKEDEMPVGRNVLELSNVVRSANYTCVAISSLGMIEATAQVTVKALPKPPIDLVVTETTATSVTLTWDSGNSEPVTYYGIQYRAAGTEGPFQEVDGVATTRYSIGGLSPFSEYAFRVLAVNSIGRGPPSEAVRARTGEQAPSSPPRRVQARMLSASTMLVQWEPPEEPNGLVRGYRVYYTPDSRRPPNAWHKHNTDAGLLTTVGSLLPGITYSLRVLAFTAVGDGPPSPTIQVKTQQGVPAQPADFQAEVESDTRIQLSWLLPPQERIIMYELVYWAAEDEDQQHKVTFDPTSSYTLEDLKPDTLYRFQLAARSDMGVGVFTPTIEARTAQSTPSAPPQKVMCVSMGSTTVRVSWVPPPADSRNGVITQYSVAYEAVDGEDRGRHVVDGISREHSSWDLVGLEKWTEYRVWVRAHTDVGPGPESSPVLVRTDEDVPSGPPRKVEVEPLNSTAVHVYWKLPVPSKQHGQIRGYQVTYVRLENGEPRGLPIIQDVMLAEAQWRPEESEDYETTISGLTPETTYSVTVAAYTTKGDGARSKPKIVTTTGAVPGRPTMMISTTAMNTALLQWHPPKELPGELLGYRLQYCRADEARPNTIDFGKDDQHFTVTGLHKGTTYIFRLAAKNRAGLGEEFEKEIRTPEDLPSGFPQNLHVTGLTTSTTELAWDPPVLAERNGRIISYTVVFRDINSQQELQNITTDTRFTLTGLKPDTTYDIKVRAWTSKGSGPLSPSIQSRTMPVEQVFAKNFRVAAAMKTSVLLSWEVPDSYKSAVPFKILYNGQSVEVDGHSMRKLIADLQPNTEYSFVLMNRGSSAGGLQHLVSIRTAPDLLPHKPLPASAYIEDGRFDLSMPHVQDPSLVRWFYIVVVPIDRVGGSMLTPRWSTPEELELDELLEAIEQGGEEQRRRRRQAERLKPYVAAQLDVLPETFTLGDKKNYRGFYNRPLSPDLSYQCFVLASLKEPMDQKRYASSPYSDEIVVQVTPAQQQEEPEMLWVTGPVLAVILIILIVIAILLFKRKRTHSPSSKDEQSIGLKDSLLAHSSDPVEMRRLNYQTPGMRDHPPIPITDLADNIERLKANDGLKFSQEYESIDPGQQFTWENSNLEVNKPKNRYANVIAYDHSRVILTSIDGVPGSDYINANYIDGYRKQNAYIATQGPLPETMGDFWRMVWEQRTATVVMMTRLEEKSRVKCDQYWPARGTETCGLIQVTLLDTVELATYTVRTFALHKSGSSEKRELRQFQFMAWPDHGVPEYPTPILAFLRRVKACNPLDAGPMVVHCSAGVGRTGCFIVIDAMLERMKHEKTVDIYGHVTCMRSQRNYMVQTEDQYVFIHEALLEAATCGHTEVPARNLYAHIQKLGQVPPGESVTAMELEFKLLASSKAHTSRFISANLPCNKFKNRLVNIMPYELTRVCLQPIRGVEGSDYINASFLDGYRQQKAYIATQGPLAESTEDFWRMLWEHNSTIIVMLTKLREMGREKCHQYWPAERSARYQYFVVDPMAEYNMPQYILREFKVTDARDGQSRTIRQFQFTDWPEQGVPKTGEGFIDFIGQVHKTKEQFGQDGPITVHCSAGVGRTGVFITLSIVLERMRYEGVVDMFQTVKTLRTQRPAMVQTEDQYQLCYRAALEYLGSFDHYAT

A word on the IC50: it is the concentration that gives 50% inhibition. High values mean weaker potency, low ones greater potency. `C#CCn1cnc2c(Cl)nc(N)nc21` [6-Chloro-9-(prop-2-yn-1-yl)-9H-purin-2-amine (2)]: the half-maximal inhibitory concentration (IC50) in experiment [1] is greater than 80 µM; in experiment [2], greater than 80 µM; in experiment [3] it was greater than 80 µM; in experiment [4], greater than 80 µM; in experiment [5], 232 µM.
In the case of `CO[C@H]1O[C@H](Cn2cc(Cn3cnc4c(Cl)nc(N)nc43)nn2)[C@@H](OCc2ccccc2)[C@H](OCc2ccccc2)[C@H]1OCc1ccccc1` [Methyl 6-{4-[(2-Amino-6-chloro-9H-purin-9-yl)methyl]-1H-1,2,3-triazol-1-yl}-2,3,4-tri-O-benzyl-6-deoxy-a-d-glucopyranoside (9)], the 50% inhibitory concentration (IC50) in experiment [1] is greater than 80 µM; in experiment [2], greater than 80 µM; in experiment [3], 29.9 µM; in experiment [4], greater than 80 µM; in experiment [5] it was 7.2 µM.
For the molecule `COc1nc(NCc2cn(C[C@H]3O[C@H](OC)[C@H](OCc4ccccc4)[C@@H](OCc4ccccc4)[C@H]3OCc3ccccc3)nn2)nc2c1ncn2Cc1cn(C[C@H]2O[C@H](OC)[C@H](OCc3ccccc3)[C@@H](OCc3ccccc3)[C@H]2OCc2ccccc2)nn1` [6-Methoxy-N,9-bis[ (1-{[(2R,3S,4S,5R,6S)-3,4,5-tris(benzyloxy)-tetrahydro-6-methoxy-2H-pyran-2-yl]methyl}-1H-1,2,3-triazol-4-yl)methyl]-9H-purin-2-amine (16)], the IC50 in experiment [1] is 24.9 µM; in experiment [2], 35.7 µM; in experiment [3] it was 2.9 µM; in experiment [4], greater than 80 µM; in experiment [5], 1.5 µM.
The corresponding values for `CO[C@H]1O[C@H](Cn2cc(CNc3nc(Cl)c4ncn(Cc5cn(C[C@H]6O[C@H](OC)[C@H](OCc7ccccc7)[C@@H](OCc7ccccc7)[C@@H]6OCc6ccccc6)nn5)c4n3)nn2)[C@@H](OCc2ccccc2)[C@H](OCc2ccccc2)[C@H]1OCc1ccccc1` [6-Chloro-N,9-bis[(1-{[(2R,3R,4S,5R,6S)-3,4,5-tris(benzyloxy)-tetrahydro-6-methoxy-2H-pyran-2-yl]methyl}-1H-1,2,3-triazol-4-yl)methyl]-9H-purin-2-amine (13)] are greater than 80 µM, greater than 80 µM, 11 µM, greater than 80 µM and 2.2 µM.
The corresponding values for `CO[C@H]1O[C@H](Cn2cc(Cn3cnc4c(Cl)nc(N)nc43)nn2)[C@H](OCc2ccccc2)[C@H](OCc2ccccc2)[C@H]1OCc1ccccc1` [Methyl 6-{4-[(2-Amino-6-chloro-9H-purin-9-yl)methyl]-1H-1,2,3-triazol-1-yl}-2,3,4-tri-O-benzyl-6-deoxy-a-d-galactopyranoside (10)] are greater than 80 µM, greater than 80 µM, 53.6 µM, greater than 80 µM and 11.1 µM.
The corresponding values for `COc1nc(N)nc2c1ncn2Cc1cn(C[C@H]2O[C@H](OC)[C@H](OCc3ccccc3)[C@@H](OCc3ccccc3)[C@@H]2OCc2ccccc2)nn1` [Methyl 6-{4-[(2-Amino-6-methoxy-9H-purin-9-yl)methyl]-1H-1,2,3-triazol-1-yl}-2,3,4-tri-O-benzyl-6-deoxy-a-d-glucopyranoside (11)] are greater than 80 µM, greater than 80 µM, greater than 80 µM, greater than 80 µM and greater than 80 µM.
On to `COc1nc(N)nc2c1ncn2Cc1cn(C[C@H]2O[C@H](OC)[C@H](OCc3ccccc3)[C@@H](OCc3ccccc3)[C@H]2OCc2ccccc2)nn1` [Methyl 6-{4-[(2-Amino-6-methoxy-9H-purin-9-yl)methyl]-1H-1,2,3-triazol-1-yl}-2,3,4-tri-O-benzyl-6-deoxy-a-d-galactopyranoside (12)], for which the IC50 in experiment [1], in experiment [2], in experiment [3], in experiment [4] and in experiment [5] was greater than 80 µM in each case.
Consider `CO[C@H]1O[C@H](Cn2cc(CNc3nc(Cl)c4ncn(Cc5cn(C[C@H]6O[C@H](OC)[C@H](OCc7ccccc7)[C@@H](OCc7ccccc7)[C@H]6OCc6ccccc6)nn5)c4n3)nn2)[C@H](OCc2ccccc2)[C@H](OCc2ccccc2)[C@H]1OCc1ccccc1` [6-Chloro-N,9-bis[(1-{[(2R,3S,4S,5R,6S)-3,4,5-tris(benzyloxy)-tetrahydro-6-methoxy-2H-pyran-2-yl]methyl}-1H-1,2,3-triazol-4-yl)methyl]-9H-purin-2-amine (14)], for which the half-inhibitory concentration (IC50) in experiment [1] was greater than 80 µM; in experiment [2], greater than 80 µM; in experiment [3] it was 18 µM; in experiment [4], greater than 80 µM; in experiment [5] it was 3.2 µM.
With `CC(=O)OC[C@H]1O[C@H](n2cc(Cn3cnc4c(Cl)nc(N)nc43)nn2)[C@H](OC(C)=O)[C@@H](OC(C)=O)[C@@H]1OC(C)=O` [2-Amino-6-chloro-9-{[1-(2,3,4,6-tetra-O-acetyl-b-d-glucopyranosyl)-1H-1,2,3-triazol-4-yl]methyl}-9H-purine (7)], the IC50 in experiment [1], in experiment [2], in experiment [3], in experiment [4] and in experiment [5] was greater than 80 µM in each case.
In the case of `C#CCNc1nc(Cl)c2ncn(CC#C)c2n1` [6-Chloro-N,9-di(prop-2-yn-1-yl)-9H-purin-2-amine (3)], the IC50 in experiment [1] is greater than 80 µM; in experiment [2], greater than 80 µM; in experiment [3], greater than 80 µM; in experiment [4], greater than 80 µM; in experiment [5] it was 75.7 µM.
With `CC(=O)OC[C@H]1O[C@H](n2cc(CNc3nc(Cl)c4ncn(Cc5cn([C@H]6O[C@H](COC(C)=O)[C@@H](OC(C)=O)[C@H](OC(C)=O)[C@H]6OC(C)=O)nn5)c4n3)nn2)[C@H](OC(C)=O)[C@@H](OC(C)=O)[C@@H]1OC(C)=O` [6-Chloro-9-{[1-(2,3,4,6-tetra-O-acetyl-b-d-glucopyranosyl)-1H-1,2,3-triazol-4-yl]methyl}-2-({[1-(2,3,4,6-tetra-O-acetyl-b-d-glucopyranosyl)-1H-1,2,3-triazol-4-yl]methyl}amino)-9H-purine (8)], the half-maximal inhibitory concentration (IC50) in experiment [1], in experiment [2], in experiment [3], in experiment [4] and in experiment [5] was greater than 80 µM in each case.
Consider `COc1nc(NCc2cn(C[C@H]3O[C@H](OC)[C@H](OCc4ccccc4)[C@@H](OCc4ccccc4)[C@@H]3OCc3ccccc3)nn2)nc2c1ncn2Cc1cn(C[C@H]2O[C@H](OC)[C@H](OCc3ccccc3)[C@@H](OCc3ccccc3)[C@@H]2OCc2ccccc2)nn1` [6-Methoxy-N,9-bis[(1-{[(2R,3R,4S,5R,6S)-3,4,5-tris(benzyloxy)-tetrahydro-6-methoxy-2H-pyran-2-yl]methyl}-1H-1,2,3-triazol-4-yl)methyl]-9H-purin-2-amine (15)], for which the 50% inhibitory concentration (IC50) in experiment [1] is greater than 80 µM; in experiment [2] it was greater than 80 µM; in experiment [3], 16.2 µM; in experiment [4] it was greater than 80 µM; in experiment [5] it was 7.9 µM.
